From patent US10934274B2, “Quinoline derivatives as TAM RTK inhibitors” (Qurient Co., Ltd., priority 2015, dated 2021) come the findings set out here.

One experiment addresses T1, Axl (Homo sapiens, UniProt P30530).
T1 construct: purchased Life Technologies
T1 sequence (P30530 26-894): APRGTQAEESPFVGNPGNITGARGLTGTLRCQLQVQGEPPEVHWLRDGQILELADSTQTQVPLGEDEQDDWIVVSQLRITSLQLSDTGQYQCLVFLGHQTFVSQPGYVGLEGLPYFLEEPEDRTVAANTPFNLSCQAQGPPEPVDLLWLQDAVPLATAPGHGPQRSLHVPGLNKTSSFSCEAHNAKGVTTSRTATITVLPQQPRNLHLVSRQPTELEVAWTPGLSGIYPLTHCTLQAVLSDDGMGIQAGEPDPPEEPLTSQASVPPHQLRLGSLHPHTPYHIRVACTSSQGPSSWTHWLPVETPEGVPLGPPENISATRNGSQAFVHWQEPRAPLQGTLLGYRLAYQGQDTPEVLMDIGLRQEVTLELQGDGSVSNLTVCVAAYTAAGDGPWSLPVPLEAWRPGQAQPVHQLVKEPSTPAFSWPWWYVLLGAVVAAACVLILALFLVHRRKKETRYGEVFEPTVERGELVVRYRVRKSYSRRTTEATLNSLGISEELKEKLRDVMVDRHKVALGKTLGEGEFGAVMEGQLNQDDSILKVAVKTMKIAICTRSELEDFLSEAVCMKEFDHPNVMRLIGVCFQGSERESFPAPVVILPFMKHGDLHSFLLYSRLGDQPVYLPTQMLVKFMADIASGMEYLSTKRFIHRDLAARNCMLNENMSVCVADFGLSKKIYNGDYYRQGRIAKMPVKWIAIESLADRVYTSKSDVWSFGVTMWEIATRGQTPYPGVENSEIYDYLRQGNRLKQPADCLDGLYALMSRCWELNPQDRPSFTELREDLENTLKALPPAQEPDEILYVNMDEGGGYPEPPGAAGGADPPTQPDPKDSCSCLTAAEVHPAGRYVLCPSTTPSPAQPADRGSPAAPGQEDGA
In words: LanthaScreen Eu kinase binding assay, Axl. The settings on record: Tracer 236.

In the next experiment the target is T2, Mer (Homo sapiens, UniProt Q12866).
T2 construct: purchased Life Technologies
T2 sequence (Q12866 21-999): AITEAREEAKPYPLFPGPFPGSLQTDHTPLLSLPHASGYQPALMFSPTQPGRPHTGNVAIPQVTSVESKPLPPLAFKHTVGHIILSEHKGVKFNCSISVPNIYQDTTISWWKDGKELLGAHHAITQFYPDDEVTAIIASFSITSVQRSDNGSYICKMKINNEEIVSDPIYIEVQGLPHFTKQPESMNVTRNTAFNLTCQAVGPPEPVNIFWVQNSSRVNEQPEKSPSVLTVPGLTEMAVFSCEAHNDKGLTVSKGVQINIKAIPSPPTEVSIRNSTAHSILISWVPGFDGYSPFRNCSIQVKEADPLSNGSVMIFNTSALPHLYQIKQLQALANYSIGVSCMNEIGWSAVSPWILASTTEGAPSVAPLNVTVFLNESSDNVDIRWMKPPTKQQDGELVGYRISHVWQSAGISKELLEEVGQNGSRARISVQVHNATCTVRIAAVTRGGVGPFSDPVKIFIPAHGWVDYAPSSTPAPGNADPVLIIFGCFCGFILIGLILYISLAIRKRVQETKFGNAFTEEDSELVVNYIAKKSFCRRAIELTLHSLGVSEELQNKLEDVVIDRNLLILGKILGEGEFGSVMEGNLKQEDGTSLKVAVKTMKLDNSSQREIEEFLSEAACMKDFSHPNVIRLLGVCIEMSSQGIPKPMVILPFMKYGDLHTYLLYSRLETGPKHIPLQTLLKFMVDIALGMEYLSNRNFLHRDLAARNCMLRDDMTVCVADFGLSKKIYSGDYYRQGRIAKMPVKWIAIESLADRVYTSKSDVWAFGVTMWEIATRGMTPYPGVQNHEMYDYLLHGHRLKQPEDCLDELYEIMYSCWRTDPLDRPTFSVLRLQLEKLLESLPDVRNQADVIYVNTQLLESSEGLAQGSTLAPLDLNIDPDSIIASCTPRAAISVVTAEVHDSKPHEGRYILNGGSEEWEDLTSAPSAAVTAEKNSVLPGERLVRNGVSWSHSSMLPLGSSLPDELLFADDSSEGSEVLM
In words: LanthaScreen Eu kinase binding assay, Mer. Conditions: Tracer 236. (In general: Time-resolved FRET reads energy transfer from a long-lived donor to a nearby acceptor.)

One may read the Kd as the concentration at which binding is half-saturated. The low end stands for a tighter complex, the high end for a looser complex.

For the molecule `CCOc1cn(-c2ncc(Cl)cc2C#N)nc1C(=O)Nc1ccc(Oc2ccnc3cc(OC)c(OC)cc23)cn1` [Compound 133], the dissociation constant (Kd) at Axl and at Mer was below 100 nM each time.

As for `CCOc1cn(-c2cnc(N)nc2)nc1C(=O)Nc1ccc(Oc2ccnc3cc(OC)c(OC)cc23)c(F)c1` [Compound 141], the dissociation constant (Kd) at Axl and at Mer was below 100 nM throughout.

For the molecule `CCOc1cn(-c2cnc(OC)nc2)nc1C(=O)Nc1ccc(Oc2ccnc3cc(OC)c(OC)cc23)cn1` [Compound 148], the Kd at Axl and at Mer was below 100 nM each time.

For `CCOc1cn(-c2cncnc2C)nc1C(=O)Nc1ccc(Oc2ccnc3cc(OC)c(OC)cc23)cn1` [Compound 149], the equilibrium dissociation constant (Kd) on Axl and on Mer was below 100 nM throughout.

On to `CCOc1cn(-c2cnccc2C)nc1C(=O)Nc1ccc(Oc2ccnc3cc(OC)c(OC)cc23)cc1F` [Compound 151], for which the equilibrium dissociation constant (Kd) on Axl and on Mer was below 100 nM in each case.

For `CCOc1cn(-c2cnc(C)cn2)nc1C(=O)Nc1ccc(Oc2ccnc3cc(OC)c(OC)cc23)cn1` [Compound 160], the Kd on Axl and at Mer was below 100 nM throughout.

On to `CCOc1cn(-c2noc(C)n2)nc1C(=O)Nc1ccc(Oc2ccnc3cc(OC)c(OC)cc23)cn1` [Compound 161], for which the dissociation constant Kd on Axl and on Mer was below 100 nM in each case.

Consider `CCOc1cn(-c2nccnc2C(F)(F)F)nc1C(=O)Nc1ccc(Oc2ccnc3cc(OC)c(OC)cc23)cn1` [Compound 162], for which the Kd at Axl and at Mer was below 100 nM in each case.

Take `CCOc1cn(-c2ncn(C)n2)nc1C(=O)Nc1ccc(Oc2ccnc3cc(OC)c(OC)cc23)cn1` [Compound 165]: the equilibrium dissociation constant (Kd) on Axl and at Mer was below 100 nM in each case.

`CCOc1cn(-c2cncnc2C2CC2)nc1C(=O)Nc1ccc(Oc2ccnc3cc(OC)c(OC)cc23)cn1` [Compound 167]: the Kd at Axl and at Mer was below 100 nM throughout.

With `CCOc1cn(-c2nc[nH]n2)nc1C(=O)Nc1ccc(Oc2ccnc3cc(OC)c(OC)cc23)cn1` [Compound 168], the Kd on Axl and on Mer was below 100 nM throughout.

`CCOc1cn(-c2cnc(Cl)cn2)nc1C(=O)Nc1ccc(Oc2ccnc3cc(OC)c(OC)cc23)cn1` [Compound 169]: the Kd at Axl and on Mer was below 100 nM in each case.

Consider `CCOc1cn(-c2cnccc2C(F)(F)F)nc1C(=O)Nc1ccc(Oc2ccnc3cc(OC)c(OC)cc23)cn1` [Compound 170], for which the dissociation constant (Kd) on Axl and at Mer was below 100 nM in each case.

On to `CCOc1cn(-c2nccnc2Cl)nc1C(=O)Nc1ccc(Oc2ccnc3cc(OC)c(OC)cc23)cn1` [Compound 177], for which the Kd on Axl and at Mer was below 100 nM throughout.

With `CCOc1cn(-c2cnccc2CO)nc1C(=O)Nc1ccc(Oc2ccnc3cc(OC)c(OC)cc23)cn1` [Compound 179], the Kd on Axl and at Mer was below 100 nM throughout.

On to `CCOc1cn(-c2cnccc2CCO)nc1C(=O)Nc1ccc(Oc2ccnc3cc(OC)c(OC)cc23)cn1` [Compound 181], for which the Kd at Axl and on Mer was below 100 nM throughout.

`CCOc1cn(-c2cnccc2C(C)=O)nc1C(=O)Nc1ccc(Oc2ccnc3cc(OC)c(OC)cc23)cn1` [Compound 182]: the Kd on Axl and at Mer was below 100 nM in each case.

Consider `CCOc1cn(-c2cnccc2Cl)nc1C(=O)Nc1ccc(Oc2ccnc3cc(OC)c(OC)cc23)cn1` [Compound 183], for which the dissociation constant Kd on Axl and at Mer was below 100 nM each time.

`CCOc1cn(-c2cnccc2C(C)(C)O)nc1C(=O)Nc1ccc(Oc2ccnc3cc(OC)c(OC)cc23)cn1` [Compound 184]: the dissociation constant (Kd) at Axl and at Mer was below 100 nM each time.

`COc1cc2nccc(Oc3ccc(NC(=O)c4nn(-c5cccnc5)cc4OCC(F)(F)F)nc3)c2cc1OC` [Compound 185]: the equilibrium dissociation constant (Kd) on Axl and at Mer was below 100 nM each time.

As to `COc1cc2nccc(Oc3ccc(NC(=O)c4nn(-c5ccc(OC(F)(F)F)cc5Cl)cc4OCC(F)(F)F)nc3)c2cc1OC` [Compound 186], the Kd was 100 to 1000 nM at Axl and below 100 nM on Mer.

Turning to `CCOc1cn(-c2c(C)ccnc2C)nc1C(=O)Nc1ccc(Oc2ccnc3cc(OC)c(OC)cc23)c(F)c1` [Compound 188], the dissociation constant (Kd) at Axl and on Mer was below 100 nM in each case.

For `CCOc1cn(-c2ccc(OC(F)(F)F)cc2Cl)nc1C(=O)Nc1ccc(Oc2ccnc3cc(OC)c(OC)cc23)c(F)c1` [Compound 189], the dissociation constant Kd at Axl and at Mer was below 100 nM throughout.

In the case of `CCOc1cn(-c2nccnc2Cl)nc1C(=O)Nc1ccc(Oc2ccnc3cc(OC)c(OC)cc23)cc1F` [Compound 190], the Kd on Axl and at Mer was below 100 nM in each case.

On to `CCOc1cn(-c2c(C)ccnc2C)nc1C(=O)Nc1ccc(Oc2ccnc3cc(OC)c(OC)cc23)cc1F` [Compound 191], for which the Kd at Axl and on Mer was below 100 nM in each case.

For `CCOc1cn(-c2ccc(OC(F)(F)F)cc2Cl)nc1C(=O)Nc1ccc(Oc2ccnc3cc(OC)c(OC)cc23)cc1F` [Compound 192], the dissociation constant (Kd) at Axl and at Mer was below 100 nM throughout.

Take `CCOc1cn(-c2cnccc2Cl)nc1C(=O)Nc1ccc(Oc2ccnc3cc(OC)c(OC)cc23)c(F)c1` [Compound 193]: the Kd on Axl and on Mer was below 100 nM each time.

Take `CCOc1cn(-c2cnccc2Cl)nc1C(=O)Nc1ccc(Oc2ccnc3cc(OC)c(OC)cc23)cc1F` [Compound 194]: the Kd at Axl and at Mer was below 100 nM throughout.

For the molecule `CCOc1cn(-c2cnccc2C(C)(C)O)nc1C(=O)Nc1ccc(Oc2ccnc3cc(OC)c(OC)cc23)c(F)c1` [Compound 195], the dissociation constant Kd at Axl and at Mer was below 100 nM throughout.

In the case of `CCOc1cn(-c2cnccc2C(F)(F)F)nc1C(=O)Nc1ccc(Oc2ccnc3cc(OC)c(OC)cc23)cc1F` [Compound 196], the Kd on Axl and on Mer was below 100 nM each time.

On to `CCOc1cn(-c2cnccc2C(C)(C)O)nc1C(=O)Nc1ccc(Oc2ccnc3cc(OC)c(OC)cc23)cc1F` [Compound 197], for which the Kd on Axl and on Mer was below 100 nM in each case.

As to `CCOc1cn(-c2cnccc2C(F)(F)F)nc1C(=O)Nc1ccc(Oc2ccnc3cc(OC)c(OC)cc23)c(F)c1` [Compound 198], the Kd on Axl and on Mer was below 100 nM throughout.

For `CCOc1cn(-c2cccnc2)nc1C(=O)Nc1ccc(Oc2ccnc3cc(OC)c(OC(F)(F)F)cc23)cn1` [Compound 199], the Kd on Axl and at Mer was below 100 nM each time.

As to `CCOc1cn(-c2nccnc2C(C)(C)O)nc1C(=O)Nc1ccc(Oc2ccnc3cc(OC)c(OC)cc23)cn1` [Compound 200], the Kd on Axl and on Mer was below 100 nM throughout.

On to `CCOc1cn(-c2ccc(OC(F)(F)F)cc2Cl)nc1C(=O)Nc1ccc(Oc2ccnc3cc(OC)c(OC(F)(F)F)cc23)cn1` [Compound 201], for which the Kd is at least 1000 nM at Axl and 100 to 1000 nM at Mer.

With `COc1cc2nccc(Oc3ccc(NC(=O)c4nn(-c5ccc(F)cc5C)cc4OCC(F)(F)F)nc3)c2cc1OC` [Compound 203], the Kd at Axl and at Mer was below 100 nM throughout.

On to `CCOc1cn(-c2cnccc2C(C)(O)CO)nc1C(=O)Nc1ccc(Oc2ccnc3cc(OC)c(OC)cc23)cn1` (centres unmarked) [Compound 205], for which the dissociation constant (Kd) at Axl and at Mer was below 100 nM throughout.
